Key:
Assay in all cases: relative viability (nuclei count vs DMSO), 5 days (fraction); higher = more cells survive
IPA-3 + Alpelisib = compound: C1=CC=C2C(=C1)C=CC(=C2SSC3=C(C=CC4=CC=CC=C43)O)O [IPA-3] + Cc1nc(NC(=O)N2CCC[C@H]2C(N)=O)sc1-c1ccnc(C(C)(C)C(F)(F)F)c1 [Alpelisib] (partner 2 µM)
Summary of the method: (§1)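 Nuclei were stained with Hoechst during a one-step fixation (final 0.05% Triton X-100, 1% formaldehyde, 1 ug/ml Hoechst) carried out 5 days after dosing, then counted on 4× images. The cells, lung cancer lines in 1536-well plates, had been dosed by pin tool the day after seeding with one drug alone or a fixed anchor-drug dose plus five library-drug doses (not always all listed) in √10 steps. Relative viability is the nuclei count in treated wells divided by that in vehicle wells, and each value is the median of duplicate plates.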

Doramapimod + Vorinostat = compound: Cc1ccc(-n2nc(C(C)(C)C)cc2NC(=O)Nc2ccc(OCCN3CCOCC3)c3ccccc23)cc1 [Doramapimod] + O=C(CCCCCCC(=O)Nc1ccccc1)NO [Vorinostat] (partner 1 µM)
Summary of the method: as §1

IPA-3 + Foretinib = compound: C1=CC=C2C(=C1)C=CC(=C2SSC3=C(C=CC4=CC=CC=C43)O)O [IPA-3] + COc1cc2c(Oc3ccc(NC(=O)C4(C(=O)Nc5ccc(F)cc5)CC4)cc3F)ccnc2cc1OCCCN1CCOCC1 [Foretinib] (partner 0.25 µM)
Summary of the method: as §1

IPA-3 + Linsitinib = compound: C1=CC=C2C(=C1)C=CC(=C2SSC3=C(C=CC4=CC=CC=C43)O)O [IPA-3] + C[C@]1(O)C[C@@H](c2nc(-c3ccc4ccc(-c5ccccc5)nc4c3)c3c(N)nccn32)C1 [Linsitinib] (partner 1 µM)
Summary of the method: as §1

Question: Which results are given for UMC-11?
Answer: relative viability (IPA-3 + Alpelisib; first compound 0.2 µM): 1.22; relative viability (IPA-3 + Alpelisib; first compound 0.6325 µM): 0.962; relative viability (IPA-3 + Alpelisib; first compound 2 µM): 1.07; relative viability (IPA-3 + Alpelisib; first compound 6.325 µM): 1.01; relative viability (IPA-3 + Alpelisib; first compound 20 µM): 1.07; relative viability (Doramapimod + Vorinostat; first compound 0.02 µM): 0.371; relative viability (Doramapimod + Vorinostat; first compound 0.06325 µM): 0.33; relative viability (Doramapimod + Vorinostat; first compound 0.2 µM): 0.423; relative viability (Doramapimod + Vorinostat; first compound 0.6325 µM): 0.316; relative viability (Doramapimod + Vorinostat; first compound 2 µM): 0.379; relative viability (IPA-3 + Foretinib; first compound 0.2 µM): 1.11; relative viability (IPA-3 + Foretinib; first compound 0.6325 µM): 0.983; relative viability (IPA-3 + Foretinib; first compound 2 µM): 1.08; relative viability (IPA-3 + Foretinib; first compound 6.325 µM): 1; relative viability (IPA-3 + Foretinib; first compound 20 µM): 1.25; relative viability (IPA-3 + Linsitinib; first compound 0.2 µM): 1.28; relative viability (IPA-3 + Linsitinib; first compound 0.6325 µM): 0.923; relative viability (IPA-3 + Linsitinib; first compound 2 µM): 1.07; relative viability (IPA-3 + Linsitinib; first compound 6.325 µM): 1.04; relative viability (IPA-3 + Linsitinib; first compound 20 µM): 1.24

— the supplement of paper PMC10307832
